Data set [1] deals with CHIKV. In words: Antiviral assay (pre-, co-, posttreatment) with FFU readout. The note with it: for anti chikungunya activity: Vero CCL-81, any treatment condition; for IC50 / anti-CHIKV activity in primary screening: FFU; for IC50: Vero CCL-81; for anti-CHIKV activity in primary screening: highest nontoxic concentration.
The subject of data set [2] is CHIKV. Put plainly: Viral entry assay. The note with it: 1.56 µM.
The subject of data set [3] is CHIKV. Put plainly: Viral RNA copy number by quantitative RT-PCR.
The nature of data set [4]: MTT cytotoxicity assay. The note with it: African green monkey. (In general: Tetrazolium assays rely on reduction of a dye to a coloured formazan, in cell work by metabolically active cells.)
The subject of data set [5] is Vero CCL-81 cells. Put plainly: MTT cytotoxicity assay. The note with it: Vero CCL-81, ≥90% cell viability.
Data set [6] relates to CHIKV. Put plainly: Viral attachment assay. The note with it: 1.56 µM and 0.78 µM, at 4°C and 37°C.
Data set [7] has as its system CHIKV. Put plainly: Western blot of viral capsid (C) protein. The data set is classed as cell-based, Chikungunya virus. The note with it: posttreatment, maximal non-toxic concentration, normalized to β-actin. The method, then: To investigate the expression of viral proteins, a western blotting assay was performed. […] The cell cultures were subjected to different types of treatment with various concentrations of the appropriate drugs. Cells were lysed using the RIPA buffer and 2X laemmli buffer at 1:1 ratio. The cell culture lysates from uninfected, infected without treatment and infected treated cells were subjected to an electrophoretic run on 10% discontinuous SDS polyacrylamide gels followed by electroblotting onto nitrocellulose membranes. The membranes were then blocked for 30 minutes using phosphate-buffered saline (PBS) containing 5% bovine serum albumin. […] This monoclonal antibody is known to react with the capsid protein of CHIKV and was characterized and purified as described earlier ([Damle et al., 2016]). The membranes were thoroughly rinsed with tris-buffered saline with 0.1% Tween 20 (TBST) after overnight incubation (5 washes totaling a 20-minute soak with rocking), and then they were incubated with the appropriate horseradish peroxidase (HRP) conjugated anti-mouse IgG antibody for two hours while rocking. For developing the blot, ECL substrate (Thermo Scientific) was used in the dark. The image of the blot was captured using the Gel Documentation system (BioRad™, USA), and analysis was done. To quantify the protein signals (density) of the viral protein and housekeeping protein in each lane, ImageJ software was used. After calculating the signal values for each band, the background signals were subtracted from the signal. The relative level of viral protein was normalized to beta-actin (monoclonal antibody 15G5A11/E2, catalog no:MA1-140, Invitrogen, USA). Signal densities were determined using ImageJ software and were plotted using GraphPad Prism software version 7.
(In general: Immunoblotting shows a protein as a band on a membrane.)

The test system of data set [8] is CHIKV. Put plainly: Immunofluorescence assay (percent infected cells). The note with it: posttreatment, IFA, compared to VC.
Data set [9] relates to CHIKV. Put plainly: Time-of-addition assay (extra- and intracellular virus, FFU). The note with it: for reduction in extracellular virus titer compared to VC / reduction in intracellular virus titer compared to VC: 50 µM.

Where “and” joins values, the source holds several entries; their conditions need not be identical. Equal entries are not always repeated.

On to `C[C@H](N[C@@H](CCc1ccccc1)C(=O)O)C(=O)N1CCC[C@H]1C(=O)O` [Enalaprilat], for which the “anti chikungunya activity” value in [1] is “exhibit anti chikungunya activity”. In addition, the “Selectivity Index (SI)” value in data set [1] (cotreatment) is given as 167.42. In addition, the “mean log10 viral titer/ml” value is reported as 7.297 log10 FFU/ml in [1] (cotreatment, 0.78 µM, VC 8.194) and 7.052 log10 FFU/ml in [1] (cotreatment, 1.56 µM, VC 8.194). The IC50 in [1] (cotreatment) came out at 0.496 µM. The “anti-CHIKV activity in primary screening” value in data set [1] (cotreatment) is listed as “effective”; in data set [1] (posttreatment) it was “did not affect”. The “effect on virus titer in virus entry assay” value in [2] is on record as “affects the virus titer”. The “effect on viral RNA titer” value in [3] (cotreatment) is “No significant reduction”. In addition, the CC50 in data set [4] was determined as 83 ± 18.7 µM. Besides, in [5], the “The maximum nontoxic concentration used for primary screening of drugs against CHIKV” value was 1.56 µM. Moreover, the “effect on virus attachment” value in data set [6] was “shown to influence virus attachment”.

`CO[C@H]1C[C@@H]2CC[C@@H](C)[C@@](O)(O2)C(=O)C(=O)N2CCCC[C@H]2C(=O)O[C@H]([C@H](C)C[C@@H]2CC[C@@H](OC(=O)C(C)(CO)CO)[C@H](OC)C2)CC(=O)[C@H](C)/C=C(\C)[C@@H](O)[C@@H](OC)C(=O)[C@H](C)C[C@H](C)/C=C/C=C/C=C/1C` [Temsirolimus]: the “viral antigen (C protein) expression” value in data set [7] is listed as “significant reduction”. Also, the “anti chikungunya activity” value in data set [1] was “exhibit anti chikungunya activity”. For the same molecule, in data set [1] (discussion summary), the “reduction of CHIKV titre compared to VC” value is 4-5 log10. The “Selectivity Index (SI)” value in data set [1] (posttreatment) was 68.41; in data set [1] (pretreatment) it was 85.1 and 85.11. For the same molecule, the “mean log10 viral titer/ml” value in data set [1] (posttreatment, 25 µM, VC 8.870) is given as 7.903 log10 FFU/ml; in data set [1] (posttreatment, 50 µM, VC 8.870) it was 3.678 log10 FFU/ml; in data set [1] (pretreatment, 25 µM, VC 8.665) it was 7.279 log10 FFU/ml. For the same molecule, the values for the IC50 in data set [1] (posttreatment) and in data set [1] (pretreatment) were 6.04 µM and 4.86 µM, respectively. Besides, the “anti-CHIKV activity in primary screening” value in data set [1] (posttreatment) and in data set [1] (pretreatment) was “effective” throughout. For the same molecule, the “reduction in percentage of infected cells” value in data set [8] is reported as “prominently observed”. Also, the “decrease in RNA copy number of CHIKV compared to VC” value in data set [3] (posttreatment, 50 µM) is on record as 2.487 log10. In data set [3] (pretreatment, 50 µM), the “decrease in viral RNA copy number compared to VC” value is listed as 0.809 log10. In data set [4], this molecule registered a CC50 of 413 ± 378 µM. The “The maximum nontoxic concentration used for primary screening of drugs against CHIKV” value in data set [5] is on record as 50 µM. Also, the “reduction in extracellular virus titer compared to VC” value in [9] (added at 0 h and 3 h) is ~ 4 log10; in data set [9] (added at 6 h), ~ 3 log10. The “reduction in intracellular virus titer compared to VC” value in data set [9] (added at 0 h and 3 h) is listed as ~ 3 log10; in data set [9] (added at 6 h), ~ 2 log10. Besides, the “effectiveness at time points of addition” value in data set [9] (added 0, 3 and 6 h post infection) is given as “effective at all the three time points”.

The IC50 is the concentration at which inhibition is half-maximal. The CC50 is the concentration that lowers cell viability or growth by half.

The values above are taken from article PMC10174255, “Drug repurposing approach against chikungunya virus: an in vitro and in silico study” (Frontiers in Cellular and Infection Microbiology, 2023).
